Test results as given in patent US20110033393A1, “Hydrazone Compounds and Their Use” (priority 2009, published 2011).

Target: T1, human TRPM5 ion channel (Homo sapiens, UniProt Q9NZQ8)
T1 sequence (Q9NZQ8 1-1165): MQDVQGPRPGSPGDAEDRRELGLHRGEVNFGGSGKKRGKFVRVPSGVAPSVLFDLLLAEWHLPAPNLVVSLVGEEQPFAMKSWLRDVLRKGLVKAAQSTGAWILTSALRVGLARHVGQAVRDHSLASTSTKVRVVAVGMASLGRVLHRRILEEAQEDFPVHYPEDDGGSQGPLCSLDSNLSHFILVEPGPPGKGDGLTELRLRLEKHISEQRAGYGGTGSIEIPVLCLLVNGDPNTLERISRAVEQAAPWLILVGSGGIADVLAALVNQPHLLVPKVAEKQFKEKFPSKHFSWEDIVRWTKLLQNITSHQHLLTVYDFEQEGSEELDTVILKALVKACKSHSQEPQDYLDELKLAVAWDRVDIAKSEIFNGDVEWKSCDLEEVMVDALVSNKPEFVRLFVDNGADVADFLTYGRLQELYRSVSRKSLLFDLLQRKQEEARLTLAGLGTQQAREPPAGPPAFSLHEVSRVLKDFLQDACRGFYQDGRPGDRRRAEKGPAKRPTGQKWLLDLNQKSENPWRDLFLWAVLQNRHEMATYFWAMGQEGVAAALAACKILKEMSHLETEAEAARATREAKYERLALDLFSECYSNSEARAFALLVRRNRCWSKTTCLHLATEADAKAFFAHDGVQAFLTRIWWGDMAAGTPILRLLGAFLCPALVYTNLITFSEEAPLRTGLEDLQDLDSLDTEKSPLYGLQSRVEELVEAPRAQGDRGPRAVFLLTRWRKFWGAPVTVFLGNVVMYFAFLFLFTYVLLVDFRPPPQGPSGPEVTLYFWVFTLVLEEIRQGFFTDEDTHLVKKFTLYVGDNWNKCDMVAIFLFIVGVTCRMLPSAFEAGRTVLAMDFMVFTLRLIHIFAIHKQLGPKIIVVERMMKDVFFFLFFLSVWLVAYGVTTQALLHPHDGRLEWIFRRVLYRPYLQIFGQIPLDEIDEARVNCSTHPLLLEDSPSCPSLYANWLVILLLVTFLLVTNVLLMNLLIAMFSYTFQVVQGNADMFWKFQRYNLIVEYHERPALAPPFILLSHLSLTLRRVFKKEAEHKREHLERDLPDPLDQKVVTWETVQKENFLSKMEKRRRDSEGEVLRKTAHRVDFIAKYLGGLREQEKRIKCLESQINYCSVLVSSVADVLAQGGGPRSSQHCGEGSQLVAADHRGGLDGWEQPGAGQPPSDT
Test: FLIPR-based assay for membrane potential and calcium mobilization (TRPM5 inhibiting activity)
Assay type: cell-based
Settings: live cells, 30° C., read-out: hTrpM5 IC50
Experimental: The activity of compounds of the present invention on human TRPM5 ion channel was measured using the FLIPR-based (fluorescent imaging plate reader) assay for membrane potential and calcium mobilization described in U.S. Patent Application Publication No. 2008/0249189 A1 in live cells, wherein the assay is performed at 30° C. Determinations of affinity and efficacy were derived from measurements of TRPM5 activity over a range of compound concentrations. The concentration range was achieved by 10 serial dilutions (either 2-fold or 3-fold decrements) from a maximum concentration of no greater that 100 μM. Curver fitting was performed on the resulting data to yield concentration-effect functions, from which the half-maximal inhibitory concentration (IC50) was derived for all the tested compounds. The IC50 values were considered to be accurate reflections of affinity between the compounds and TRPM5.
Representative compounds of the present invention have been tested in the FLIPR assay for TRPM5 inhibiting activity, which is described in detail above.

| SMILES | IC50 [nM] |
| --- | --- |
| COc1cc(/C=N/NC(=O)CCn2cc(C)c3c(C)cccc32)ccc1OCc1cnccn1 [Example 21, 3-(3,4-Dimethyl-1H-indol-1-yl)-N′-(3-methoxy-4-(pyrazin-2-ylmethoxy)benzylidene)propanehydrazide] | 60 |
| Cc1cc(/C=N/NC(=O)CCc2cn(C)c3ccccc23)cc2cccnc12 [Example 23, 3-(1-Methyl-1H-indol-3-yl)-N′-((8-methylquinolin-6-yl)methylene)propanehydrazide] | 160 |
| COc1cccc(CCC(=O)N/N=C/c2cc(C)c3ncccc3c2)n1 [Example 26, 3-(6-Methoxypyridin-2-yl)-N′-((8-methylquinolin-6-yl)methylene)propanehydrazide] | 2000 |
| COc1cc(/C=N/NC(=O)CCn2cc(C)c3c(C)cccc32)cc2cccnc12 [Example 27, 3-(3,4-Dimethyl-1H-indol-1-yl)-N′-((8-methoxyquinolin-6-yl)methylene)propanehydrazide] | 1.4 |
| COc1cc(/C=N/NC(=O)C2CC2c2cccc(Cl)c2)cc2cccnc12 (stereo not drawn) [Example 30, trans-2-(3-Chlorophenyl)-N′-((8-methoxyquinolin-6-yl)methylene)cyclopropanecarbohydrazide] | 45 |
| Cc1cn(CCC(=O)N/N=C/c2ccc3nccnc3c2)c2ccccc12 [Example 32, 3-(3-Methyl-1H-indol-1-yl)-N′-(quinoxalin-6-ylmethylene)propanehydrazide] | 2200 |
| Cc1cn(CCC(=O)N/N=C/c2ccc3ncccc3n2)c2ccccc12 [Example 33, N′-((1,5-Naphthyridin-2-yl)methylene)-3-(3-methyl-1H-indol-1-yl)propanehydrazide] | 1300 |
| Cc1cn(CCC(=O)NN=Cc2ccc3nnccc3c2)c2ccccc12 [Example 34, N′-(Cinnolin-6-ylmethylene)-3-(3-methyl-1H-indol-1-yl)propanehydrazide] | 430 |
| Cc1cc(/C=N/NC(=O)CSc2cccc(Cl)c2)cc2cccnc12 [Example 35, 2-(3-Chlorophenylthio)-N′-((8-methylquinolin-6-yl)methylene)acetohydrazide] | 830 |
| COc1ccc(/C=N/NC(=O)CCc2cnc3ccccc3c2)cc1OC [Example 39, N′-(3,4-dimethoxybenzylidene)-3-(quinolin-3-yl)propanehydrazide] | 810 |
| Cc1cc(/C=N/NC(=O)C2CC2c2ccc(F)cc2)cc2cccnc12 (stereo not drawn) [Example 40, trans-2-(4-Fluorophenyl)-N′-((8-methylquinolin-6-yl)methylene)cyclopropanecarbohydrazide] | 510 |
| Cc1cc(/C=N/NC(=O)C2CC2c2ccc(Cl)cn2)cc2cccnc12 (stereo not drawn) [Example 43, trans-2-(5-Chloropyridin-2-yl)-N′-((8-methylquinolin-6-yl)methylene)cyclopropanecarbohydrazide] | 5400 |
| O=C(N/N=C/c1cc(F)c2ncccc2c1)C1CC1c1ccccc1 (stereo not drawn) [Example 44, trans-N′-((8-Fluoroquinolin-6-yl)methylene)-2-phenylcyclopropanecarbohydrazide] | 550 |
| Cc1cccc2c1c(C)cn2CCC(=O)N/N=C/c1ccc2c(c1)OCCCO2 [Example 45] | 24 |
| COc1ccc(/C=N/NC(=O)CCn2cc(C)c3c(OC)cccc32)cc1OC [Example 46, N′-(3,4-Dimethoxybenzylidene)-3-(4-methoxy-3-methyl-1H-indol-1-yl)propanehydrazide] | 6 |
| COc1ccc(/C=N/NC(=O)CCn2cc(CN(C)C)c3c(Cl)cccc32)cc1OC [Example 47, 3-(4-Chloro-3-((dimethylamino)methyl)-1H-indol-1-yl)-N′-(3,4-dimethoxybenzylidene)propanehydrazide] | 1500 |
| COc1ccc(/C=N/NC(=O)CCc2cn(C)c3c(C)cccc23)cc1OC [Example 48, N′-(3,4-Dimethoxybenzylidene)-3-(1,7-dimethyl-1H-indol-3-yl)propanehydrazide] | 9 |

| SMILES | IC50 [nM] |
| --- | --- |
| COc1ccc(/C=N/NC(=O)CCn2cc(Cl)c3c(C)cccc32)cc1OC [Example 49, 3-(3-Chloro-4-methyl-1H-indol-1-yl)-N′-(3,4-dimethoxybenzylidene)propanehydrazide] | 1.3 |
| COc1ccc(/C=N/NC(=O)CCn2cc(C)c3c(CO)cccc32)cc1OC [Example 50, N′-(3,4-Dimethoxybenzylidene)-3-(4-(hydroxymethyl)-3-methyl-1H-indol-1-yl)propanehydrazide] | 260 |
| COc1ccc(/C=N/NC(=O)C(C)S(=O)(=O)c2cccc(Cl)c2)cc1OC (stereo not shown) [Example 51, 2-(3-Chlorophenylsulfonyl)-N′-(3,4-dimethoxybenzylidene)propanehydrazide] | 1700 |
| COc1cc(C)c2cc(/C=N/NC(=O)CCn3cc(C)c4ccccc43)ccc2n1 [Example 52, N′-((2-Methoxy-4-methylquinolin-6-yl)methylene)-3-(3-methyl-1H-indol-1-yl)propanehydrazide] | 2000 |
| COc1cnc(/C=N/NC(=O)C(C)Sc2cccc(Cl)c2)cc1OC (stereo not shown) [Example 53, 2-(3-Chlorophenylthio)-N′-((4,5-dimethoxypyridin-2-yl)methylene)propanehydrazide] | > 30000 |
| COc1ccc(/C=N/NC(=O)CCn2ccc3ccccc32)cc1OC [Example 54, N′-(3,4-dimethoxybenzylidene)-3-(1H-indol-1-yl)propanehydrazide] | 170 |
| COc1ccc(/C=N/NC(=O)CSc2ccccc2)cc1OC [Example 55, N′-(3,4-dimethoxybenzylidene)-2-(phenylthio)acetohydrazide] | 660 |
| COc1ccc(/C=N/NC(=O)CCn2cc(C)c3ccccc32)cc1OC [Example 56, N′-(3,4-dimethoxybenzylidene)-3-(3-methyl-1H-indol-1-yl)propanehydrazide] | 17 |
| COc1ccc(/C=N/NC(=O)CCn2ccc3c(C)cccc32)cc1OC [Example 57, N′-(3,4-dimethoxybenzylidene)-3-(4-methyl-1H-indol-1-yl)propanehydrazide] | 12 |
| Cc1cn(CCC(=O)N/N=C/c2ccc3c(c2)OCCCO3)c2ccccc12 [Example 58, N′-((3,4-dihydro-2H-benzo[b][1,4]di-oxepin-7-yl)methylene)-3-(3-methyl-1H-indol-1-yl)propanehydrazide] | 180 |
| Cc1cn(CCC(=O)N/N=C/c2ccc3ncccc3c2)c2ccccc12 [Example 59, 3-(3-methyl-1H-indol-1-yl)-N′-(quinolin-6-ylmethylene)-propanehydrazide] | 340 |
| Cc1cn(CCC(=O)N/N=C/c2ccc3c(c2)OCCN3C)c2ccccc12 [Example 60, 3-(3-methyl-1H-indol-1-yl)-N′-((4-methyl-3,4-dihydro-2H-benzo[b][1,4]-oxazin-7-yl)methylene)propanehydrazide] | 750 |
| Cc1cnc2ccc(/C=N/NC(=O)CCn3cc(C)c4ccccc43)cc2c1 [Example 61, 3-(3-methyl-1H-indol-1-yl)-N′-((3-methylquinolin-6-yl)methylene)-propanehydrazide] | 210 |
| Cc1ccnc2ccc(/C=N/NC(=O)CCn3cc(C)c4ccccc43)cc12 [Example 62, 3-(3-methyl-1H-indol-1-yl)-N′-((4-methylquinolin-6-yl)methylene)-propanehydrazide] | 370 |
| COc1ccnc2ccc(/C=N/NC(=O)CCn3cc(C)c4ccccc43)cc12 [Example 63, N′-((4-methoxyquinolin-6-yl)methylene)-3-(3-methyl-1H-indol-1-yl)propanehydrazide] | 120 |
| Cc1cc(/C=N/NC(=O)CCn2cc(C)c3c(C)cccc32)cc2cccnc12 [Example 64, 3-(3,4-dimethyl-1H-indol-1-yl)-N′-((8-methylquinolin-6-yl)-methylene)propanehydrazide] | 5 |
| COc1ccc(/C=N/NC(=O)NCCc2ccccc2)cc1OC [Example 65, 2-(3,4-dimethoxybenzylidene)-N-phenethylhydrazinecarboxamide] | 200 |
